Results: patent US20230406885A1, “CYCLIC PEPTIDES FOR TRAPPING INTERLEUKIN-1 BETA” (MERCK SHARP & DOHME LLC, priority 2022, published 2023)
*1 amine or outer side, *2 acyl side, *3 side chain or, on linkers, in order; H or OH if unused. Where a SMILES comes first, the peptide text is derived from it. [ ]: non-standard residue; d: D form. Trp(4-Cl)(βS-Me) = C[C@@H](c1c[nH]c2cccc(Cl)c12)[C@H](N)C(=O)O; Trp(βS-Me,4-F) = C[C@@H](c1c[nH]c2cccc(F)c12)[C@H](N)C(=O)O; Bip(4'-COOH) = N[C@@H](Cc1ccc(-c2ccc(C(=O)O)cc2)cc1)C(=O)O; X6 = O=C(O)C12CC(c3ccc(C[C@H](N[*:1])C(=O)[*:2])cc3)(C1)C2; Phe(3-CH2NH2) = O=C([C@H](Cc1cccc(CN[*:3])c1)N[*:1])[*:2]; 1Nal(3S-Me) = C[C@@H](c1cccc2ccccc12)[C@H](N)C(=O)O; Ala(indazol-1-yl) = N[C@@H](Cn1ncc2ccccc21)C(=O)O; Ala(indolin-1-yl) = N[C@@H](CN1CCc2ccccc21)C(=O)O; Trp(6-Cl) = N[C@@H](Cc1c[nH]c2cc(Cl)ccc12)C(=O)O; Phe(3-Ph) = N[C@@H](Cc1cccc(-c2ccccc2)c1)C(=O)O; Phe(4-COOH) = N[C@@H](Cc1ccc(C(=O)O)cc1)C(=O)O; Trp(6-F) = N[C@@H](Cc1c[nH]c2cc(F)ccc12)C(=O)O; Trp(7-aza) = N[C@@H](Cc1c[nH]c2ncccc12)C(=O)O; h3Pal(5-CN) = N#Cc1cncc(CC[C@H](N)C(=O)O)c1; Pro(4R-NH2) = N[C@H]1CN[C@H](C(=O)O)C1; 1Nal = N[C@@H](Cc1cccc2ccccc12)C(=O)O; AEF = NCCOc1ccc(C[C@H](N)C(=O)O)cc1; hTyr = N[C@@H](CCc1ccc(O)cc1)C(=O)O; hCha = N[C@@H](CCC1CCCCC1)C(=O)O; Cha = N[C@@H](CC1CCCCC1)C(=O)O; dDab = NCC[C@@H](N)C(=O)O; dNMeA = CN[C@H](C)C(=O)O; Dap = NC[C@H](N)C(=O)O; Aib = CC(C)(N)C(=O)O

Target: T1, Recombinant human IL-1β (Homo sapiens, UniProt P01584)
T1 construct: purchased BioLegend 579404
T1 sequence (P01584 117-269): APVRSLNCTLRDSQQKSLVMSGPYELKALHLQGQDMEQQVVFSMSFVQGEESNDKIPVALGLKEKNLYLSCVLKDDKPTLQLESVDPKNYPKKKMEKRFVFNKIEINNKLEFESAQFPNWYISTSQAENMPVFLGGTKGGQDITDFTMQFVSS
Assay: IL-6 assay in MRC5 cells: inhibition of IL-1β induced IL-6 secretion (AlphaLISA)
Type: cell-based
Settings: inhibition of IL-1β induced IL-6 secretion in MRC5 cells; IL-1β pre-incubated 1 hour with compound; read-out: MRC5 IC50
In short: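 IL-1β at 2×EC80 in seeding medium (EMEM, 0.025% BSA) preincubated 1 h at ambient temperature with compound, then 3000 MRC5 cells/well added and incubated overnight at 37 °C, 5% CO2. IL-6 in conditioned medium quantified by AlphaLISA; IC50 from 4-parameter logistic fit.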

IC50	SMILES
469 pM	C[C@@H]1C(=O)NCC(=O)N[C@@H](Cc2ccc(-c3ccc(C(=O)O)cc3)cc2)C(=O)N[C@@H](CN)C(=O)N[C@@H](CO)C(=O)N[C@H](C)C(=O)N[C@@H](CCc2ccc(O)cc2)C(=O)N[C@@H](Cc2ccc(-c3ccc(C(=O)O)cc3)cc2)C(=O)N[C@@H](Cc2c[nH]c3ccccc23)C(=O)N[C@@H](Cc2ccc(C(=O)O)cc2)C(=O)NCC(=O)N2C[C@H](N)C[C@H]2C(=O)N[C@@H]([C@@H](C)c2c[nH]c3cccc(Cl)c23)C(=O)N[C@@H](CC(=O)O)C(=O)N1C [Example 41] (cyclo([Bip(4'-COOH)]W[Phe(4-COOH)]G[Pro(4R-NH2)][Trp(4-Cl)(βS-Me)]D[dNMeA]G[Bip(4'-COOH)][Dap]S[dA][hTyr]))
165 pM	CC(C)C[C@@H]1NC(=O)[C@H](Cc2cccc(-c3ccccc3)c2)NC(=O)[C@H](Cc2ccc(-c3ccc(C(=O)O)cc3)cc2)NC(=O)CNC(=O)[C@@H](C)N(C)C(=O)[C@H](CC(=O)O)NC(=O)[C@H]([C@@H](C)c2c[nH]c3cccc(F)c23)NC(=O)[C@@H]2C[C@@H](N)CN2C(=O)CNC(=O)[C@H](Cc2ccc(C(=O)O)cc2)NC(=O)[C@H](Cc2c[nH]c3ccccc23)NC(=O)[C@H](Cc2ccc(-c3ccc(C(=O)O)cc3)cc2)NC(=O)[C@H](CCc2ccc(O)cc2)NC(=O)[C@@H](C)NC1=O [Example 75] (cyclo([Bip(4'-COOH)]W[Phe(4-COOH)]G[Pro(4R-NH2)][Trp(βS-Me,4-F)]D[dNMeA]G[Bip(4'-COOH)][Phe(3-Ph)]L[dA][hTyr]))
52.2 pM	CC(C)C[C@@H]1NC(=O)[C@H](Cc2cccc3ccccc23)NC(=O)[C@H](Cc2ccc(-c3ccc(C(=O)O)cc3)cc2)NC(=O)CNC(=O)[C@@H](C)N(C)C(=O)[C@H](CC(=O)O)NC(=O)[C@H]([C@@H](C)c2c[nH]c3cccc(Cl)c23)NC(=O)[C@@H]2C[C@@H](N)CN2C(=O)CNC(=O)[C@H](Cc2ccc(C(=O)O)cc2)NC(=O)[C@H](Cc2c[nH]c3ccccc23)NC(=O)[C@H](Cc2ccc(-c3ccc(C(=O)O)cc3)cc2)NC(=O)[C@H](CCc2ccc(O)cc2)NC(=O)C(C)(C)NC1=O [Example 36] (cyclo([Bip(4'-COOH)]W[Phe(4-COOH)]G[Pro(4R-NH2)][Trp(4-Cl)(βS-Me)]D[dNMeA]G[Bip(4'-COOH)][1Nal]L[Aib][hTyr]))
41 pM	C[C@@H]1C(=O)NCC(=O)N[C@@H](Cc2ccc(-c3ccc(C(=O)O)cc3)cc2)C(=O)N[C@@H](Cc2cccc(CN)c2)C(=O)N[C@@H](CO)C(=O)N[C@H](C)C(=O)N[C@@H](CCc2ccc(O)cc2)C(=O)N[C@@H](Cc2ccc(-c3ccc(C(=O)O)cc3)cc2)C(=O)N[C@@H](Cc2c[nH]c3ccccc23)C(=O)N[C@@H](Cc2ccc(C(=O)O)cc2)C(=O)NCC(=O)N2C[C@H](N)C[C@H]2C(=O)N[C@@H]([C@@H](C)c2c[nH]c3cccc(Cl)c23)C(=O)N[C@@H](CC(=O)O)C(=O)N1C [Example 48] (cyclo([Bip(4'-COOH)]W[Phe(4-COOH)]G[Pro(4R-NH2)][Trp(4-Cl)(βS-Me)]D[dNMeA]G[Bip(4'-COOH)][Phe(3-CH2NH2)]S[dA][hTyr]))
29.7 pM	C[C@@H]1C(=O)NCC(=O)N[C@@H](Cc2ccc(-c3ccc(C(=O)O)cc3)cc2)C(=O)N[C@@H](CN2CCc3ccccc32)C(=O)N[C@@H](CN)C(=O)N[C@H](C)C(=O)N[C@@H](CCc2ccc(O)cc2)C(=O)N[C@@H](Cc2ccc(-c3ccc(C(=O)O)cc3)cc2)C(=O)N[C@@H](Cc2c[nH]c3ccccc23)C(=O)N[C@@H](Cc2ccc(C(=O)O)cc2)C(=O)NCC(=O)N2C[C@H](N)C[C@H]2C(=O)N[C@@H]([C@@H](C)c2cccc3ccccc23)C(=O)N[C@@H](CC(=O)O)C(=O)N1C [Example 14] (cyclo([Bip(4'-COOH)]W[Phe(4-COOH)]G[Pro(4R-NH2)][1Nal(3S-Me)]D[dNMeA]G[Bip(4'-COOH)][Ala(indolin-1-yl)][Dap][dA][hTyr]))
68.8 pM	CC(C)C[C@@H]1NC(=O)[C@H](CCCCN)NC(=O)[C@H](Cc2ccc(-c3ccc(C(=O)O)cc3)cc2)NC(=O)CNC(=O)[C@@H](C)N(C)C(=O)[C@H](CC(=O)O)NC(=O)[C@H]([C@@H](C)c2cccc3ccccc23)NC(=O)[C@@H]2C[C@@H](N)CN2C(=O)CNC(=O)[C@H](Cc2ccc(C(=O)O)cc2)NC(=O)[C@H](Cc2c[nH]c3ccccc23)NC(=O)[C@H](Cc2ccc(-c3ccc(C(=O)O)cc3)cc2)NC(=O)[C@H](CCc2ccc(O)cc2)NC(=O)[C@@H](CO)NC1=O [Example 26] (cyclo([Bip(4'-COOH)]W[Phe(4-COOH)]G[Pro(4R-NH2)][1Nal(3S-Me)]D[dNMeA]G[Bip(4'-COOH)]KL[dS][hTyr]))
20.8 pM	C[C@@H]1C(=O)NCC(=O)N[C@@H](Cc2ccc(-c3ccc(C(=O)O)cc3)cc2)C(=O)N[C@@H](Cc2c[nH]c3ccccc23)C(=O)N[C@@H](CN)C(=O)N[C@H](C)C(=O)N[C@@H](CCc2ccc(O)cc2)C(=O)N[C@@H](Cc2ccc(-c3ccc(C(=O)O)cc3)cc2)C(=O)N[C@@H](Cc2c[nH]c3ccccc23)C(=O)N[C@@H](Cc2ccc(C(=O)O)cc2)C(=O)NCC(=O)N2C[C@H](N)C[C@H]2C(=O)N[C@@H]([C@@H](C)c2cccc3ccccc23)C(=O)N[C@@H](CC(=O)O)C(=O)N1C [Example 31] (cyclo([Bip(4'-COOH)]W[Phe(4-COOH)]G[Pro(4R-NH2)][1Nal(3S-Me)]D[dNMeA]G[Bip(4'-COOH)]W[Dap][dA][hTyr]))

The next lines start with the compound.

SMILES	IC50
CC(=O)NCCOc1ccc(C[C@@H]2NC(=O)[C@H](CCc3cncc(C#N)c3)NC(=O)[C@@H](CCN)NC(=O)CNC(=O)[C@H](Cn3ncc4ccccc43)NC(=O)[C@H](Cc3ccc(-c4ccc(C(=O)O)cc4)cc3)NC(=O)CNC(=O)[C@@H](C)N(C)C(=O)[C@H](CC(=O)O)NC(=O)[C@H]([C@@H](C)c3cccc4ccccc34)NC(=O)[C@@H]3C[C@@H](N)CN3C(=O)CNC(=O)[C@H](Cc3ccc(C(=O)O)cc3)NC(=O)[C@H](Cc3c[nH]c4ccccc34)NC2=O)cc1 [Example 90] (cyclo([AEF](Ac)W[Phe(4-COOH)]G[Pro(4R-NH2)][1Nal(3S-Me)]D[dNMeA]G[Bip(4'-COOH)][Ala(indazol-1-yl)]G[dDab][h3Pal(5-CN)]))	50.7 pM
C[C@@H]1C(=O)NCC(=O)N[C@@H](Cc2ccc(-c3ccc(C(=O)O)cc3)cc2)C(=O)N[C@@H](Cc2c[nH]c3ccccc23)C(=O)NCC(=O)N[C@H](CCN)C(=O)N[C@@H](CCc2ccc(O)cc2)C(=O)N[C@@H](Cc2ccc(-c3ccc(C(=O)O)cc3)cc2)C(=O)N[C@@H](Cc2c[nH]c3ccccc23)C(=O)N[C@@H](Cc2ccc(C(=O)O)cc2)C(=O)NCC(=O)N2C[C@H](N)C[C@H]2C(=O)N[C@@H]([C@@H](C)c2c[nH]c3cccc(Cl)c23)C(=O)N[C@@H](CC(N)=O)C(=O)N1C [Example 56] (cyclo([Bip(4'-COOH)]W[Phe(4-COOH)]G[Pro(4R-NH2)][Trp(4-Cl)(βS-Me)]N[dNMeA]G[Bip(4'-COOH)]WG[dDab][hTyr]))	20.7 pM

Same assay, conditions: inhibition of IL-1β induced IL-6 secretion in MRC5 cells; read-out: MRC5 IC50

IC50	SMILES
20 pM	CC(=O)NCCOc1ccc(C[C@@H]2NC(=O)[C@H](CCC3CCCCC3)NC(=O)[C@@H](CCN)NC(=O)[C@H](CO)NC(=O)[C@H](Cc3c[nH]c4ncccc34)NC(=O)[C@H](Cc3ccc(-c4ccc(C(=O)O)cc4)cc3)NC(=O)CNC(=O)[C@@H](C)N(C)C(=O)[C@H](CC(=O)O)NC(=O)[C@H]([C@@H](C)c3cccc4ccccc34)NC(=O)[C@@H]3C[C@@H](N)CN3C(=O)CNC(=O)[C@H](Cc3ccc(C(=O)O)cc3)NC(=O)[C@H](Cc3c[nH]c4cc(Cl)ccc34)NC2=O)cc1 [Example 210] (cyclo([AEF](Ac)[Trp(6-Cl)][Phe(4-COOH)]G[Pro(4R-NH2)][1Nal(3S-Me)]D[dNMeA]G[Bip(4'-COOH)][Trp(7-aza)]S[dDab][hCha]))
25 pM	CC(=O)NCCOc1ccc(C[C@@H]2NC(=O)[C@H](CCC3CCCCC3)NC(=O)[C@@H](CCN)NC(=O)[C@H](CO)NC(=O)[C@H](Cc3c[nH]c4ncccc34)NC(=O)[C@H](Cc3ccc(-c4ccc(C(=O)O)cc4)cc3)NC(=O)CNC(=O)[C@@H](C)N(C)C(=O)[C@H](CC(=O)O)NC(=O)[C@H]([C@@H](C)c3cccc4ccccc34)NC(=O)[C@@H]3C[C@@H](N)CN3C(=O)CNC(=O)[C@H](Cc3ccc(C(=O)O)cc3)NC(=O)[C@H](Cc3c[nH]c4cc(F)ccc34)NC2=O)cc1 [Example 212] (cyclo([AEF](Ac)[Trp(6-F)][Phe(4-COOH)]G[Pro(4R-NH2)][1Nal(3S-Me)]D[dNMeA]G[Bip(4'-COOH)][Trp(7-aza)]S[dDab][hCha]))
136 pM	CC(=O)NCCOc1ccc(C[C@@H]2NC(=O)[C@H](CCc3ccc(O)cc3)NC(=O)[C@@H](C)NC(=O)[C@H](CC(C)C)NC(=O)[C@H](Cc3c[nH]c4ccccc34)NC(=O)[C@H](Cc3ccc(-c4ccc(C(=O)O)cc4)cc3)NC(=O)CNC(=O)[C@@H](C)N(C)C(=O)[C@H](CC(=O)O)NC(=O)[C@H]([C@@H](C)c3c[nH]c4cccc(F)c34)NC(=O)[C@@H]3C[C@@H](N)CN3C(=O)CNC(=O)[C@H](Cc3ccc(C(=O)O)cc3)NC(=O)[C@H](Cc3c[nH]c4ccccc34)NC2=O)cc1 [Example 167] (cyclo([AEF](Ac)W[Phe(4-COOH)]G[Pro(4R-NH2)][Trp(βS-Me,4-F)]D[dNMeA]G[Bip(4'-COOH)]WL[dA][hTyr]))
18 pM	C[C@@H]1C(=O)NCC(=O)N[C@@H](Cc2ccc(-c3ccc(C(=O)O)cc3)cc2)C(=O)N[C@@H](CC2CCCCC2)C(=O)NCC(=O)N[C@H](CCN)C(=O)N[C@@H](CCc2ccc(O)cc2)C(=O)N[C@@H](Cc2ccc(C34CC(C(=O)O)(C3)C4)cc2)C(=O)N[C@@H](Cc2c[nH]c3ccccc23)C(=O)N[C@@H](Cc2ccc(C(=O)O)cc2)C(=O)NCC(=O)N2C[C@H](N)C[C@H]2C(=O)N[C@@H]([C@@H](C)c2cccc3ccccc23)C(=O)N[C@@H](CC(=O)O)C(=O)N1C [Example 190] (cyclo([X6]W[Phe(4-COOH)]G[Pro(4R-NH2)][1Nal(3S-Me)]D[dNMeA]G[Bip(4'-COOH)][Cha]G[dDab][hTyr]))
